Structures can show the parent of a compound that is named as a salt.
molecular target: T1, HCV polymerase (Hepatitis C virus genotype 1b, UniProt P26663); assay: biochemical; parameters: species or system HCV BK strain
T1 construct: a region encoding NS5B (J Virol 1991 March, 65(3), 1105-13, 544 amino acids after deletion of 47 amino acids on the C-terminal); 6xHis (C); made in house; host or cells: Escherichia coli
How it was run: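 His-tagged NS5B (BK strain, 47-aa C-terminal deletion, E. coli-expressed) at 0.5 μg/ml copied 5 μg/ml run-off RNA bearing the HCV 3′ UTR with 2 μM UTP plus [3H]UTP, 50 μM ATP/GTP, in pH 7.5 Tris with 5 mM MgCl2, 25 °C, 90 min. TCA-precipitated RNA was counted and IC50 calculated.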

T1 sequence (P26663 2420-2963): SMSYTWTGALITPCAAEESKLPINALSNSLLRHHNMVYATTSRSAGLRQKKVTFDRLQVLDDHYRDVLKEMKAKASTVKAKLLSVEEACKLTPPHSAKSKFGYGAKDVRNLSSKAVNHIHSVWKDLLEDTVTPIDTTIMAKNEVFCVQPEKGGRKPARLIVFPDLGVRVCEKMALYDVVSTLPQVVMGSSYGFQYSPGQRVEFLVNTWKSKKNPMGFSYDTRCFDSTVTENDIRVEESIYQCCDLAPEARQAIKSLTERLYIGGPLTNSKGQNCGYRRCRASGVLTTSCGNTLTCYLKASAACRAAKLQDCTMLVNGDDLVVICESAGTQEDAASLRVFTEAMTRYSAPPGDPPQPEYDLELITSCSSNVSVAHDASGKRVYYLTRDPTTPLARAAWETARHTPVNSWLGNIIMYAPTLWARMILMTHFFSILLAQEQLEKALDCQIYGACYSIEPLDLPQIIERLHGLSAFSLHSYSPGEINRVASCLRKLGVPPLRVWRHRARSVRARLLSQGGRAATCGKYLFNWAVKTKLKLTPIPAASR

**Q.** With `CC(C)OCCN(CCN1CCCCC1)c1cccc2c1OCCn1c-2c(C2CCCCC2)c2ccc(C(=O)O)cc21` [Example 2-257, 12-cyclohexyl-4-(N-(2-isopropoxyethyl)-N-[2-(piperidin-1-yl)ethyl]amino}-6,7-dihydro-5-oxa-7a-azadibenzo[a,e]azulene-9-carboxylic acid dihydrochloride] as the compound, how does the IC50 read?
**A.** < 100 nM

**Q.** For `Cc1nc(C(C)(C)NC(=O)c2ccc3c(C4CCCCC4)c4n(c3c2)CCOc2ccccc2-4)[nH]c1C` [Example 2-258, N-[1-(4,5-dimethyl-1H-imidazol-2-yl)-1-methylethyl]-12-cyclohexyl-6,7-dihydro-5-oxa-7a-azadibenzo[a,e]azulene-9-carboxamide], which IC50 is on record?
**A.** < 100 nM

**Q.** With `Cc1nc(C(C)(C)NC(=O)c2ccc3c(C4CCCCC4)c4n(c3c2)CCOc2ccccc2-4)n(C)c1C` [Example 2-259, N-[1-methyl-1-(1,4,5-trimethyl-1H-imidazol-2-yl)ethyl]-12-cyclohexyl-6,7-dihydro-5-oxa-7a-azadibenzo[a,e]azulene-9-carboxamide] as the compound, how does the IC50 read?
**A.** < 100 nM

**Q.** For `CC(C)(NC(=O)c1ccc2c(C3CCCCC3)c3n(c2c1)CCOc1ccccc1-3)C(=O)Nc1cccc(O)c1` [Example 2-260, N-[1-(3-hydroxyphenylcarbamoyl)-1-methylethyl]-12-cyclohexyl-6,7-dihydro-5-oxa-7a-azadibenzo[a,e]azulene-9-carboxamide], which IC50 is on record?
**A.** < 100 nM

**Q.** How did the IC50 turn out when `O=C(O)c1ccc2c(C3CCCCC3)c3n(c2c1)CCOc1c-3cccc1N(CCO)CCN1CCCCC1` [Example 2-261, 12-cyclohexyl-4-{N-(2-hydroxyethyl)-N-[2-(piperidin-1-yl)ethyl]amino}-6,7-dihydro-5-oxa-7a-azadibenzo[a,e]azulene-9-carboxylic acid dihydrochloride] was run?
**A.** < 100 nM

**Q.** For `COc1ccc2c(c1)OCCn1c-2c(C2CCCCC2)c2ccc(C(=O)N[C@@H](Cc3ccc(O)cc3)C(=O)N(C)C)cc21` [Example 2-262, N—[(S)-1-dimethylcarbamoyl-2-(4-hydroxyphenyl)ethyl]-12-cyclohexyl-3-methoxy-6,7-dihydro-5-oxa-7a-azadibenzo[a,e]azulene-9-carboxamide], which IC50 is on record?
**A.** < 100 nM

**Q.** Which IC50 does the source give for `CNC(=O)[C@H](Cc1ccc(O)cc1)NC(=O)c1ccc2c(C3CCCCC3)c3n(c2c1)CCOc1cc(OC)ccc1-3` [Example 2-263, N—[(S)-2-(4-hydroxyphenyl)-1-(methylcarbamoyl)ethyl]-12-cyclohexyl-3-methoxy-6,7-dihydro-5-oxa-7a-azadibenzo[a,e]azulene-9-carboxamide] here?
**A.** < 100 nM

**Q.** For `COC(=O)Cn1c(C(C)(C)NC(=O)c2ccc3c(C4CCCCC4)c4n(c3c2)CCOc2ccccc2-4)nc(C)c1C` [Example 2-264, methyl (2-{1-[(12-cyclohexyl-6,7-dihydro-5-oxa-7a-azadibenzo[a,e]azulene-9-carbonyl)amino]-1-methylethyl}-4,5-dimethylimidazol-1-yl)acetate], which IC50 is on record?
**A.** < 100 nM

**Q.** With `Cc1nc(C(C)(C)NC(=O)c2ccc3c(C4CCCCC4)c4n(c3c2)CCOc2ccccc2-4)n(CC(=O)O)c1C` [Example 2-265, (2-{1-[(12-cyclohexyl-6,7-dihydro-5-oxa-7a-azadibenzo[a,e]azulene-9-carbonyl)amino]-1-methylethyl}-4,5-dimethylimidazol-1-yl)acetic acid] as the compound, how does the IC50 read?
**A.** 100 to 1000 nM

**Q.** `COC(=O)c1ccc2nc(NC(=O)c3ccc4c(C5CCCCC5)c5n(c4c3)CCOc3ccccc3-5)[nH]c2c1` [Example 2-266, methyl 2-[(12-cyclohexyl-6,7-dihydro-5-oxa-7a-azadibenzo[a,e]azulene-9-carbonyl)amino]-3H-benzimidazole-5-carboxylate] was tested. Which IC50 did it give?
**A.** 100 to 1000 nM

**Q.** With `O=C(Nc1nc2ccccc2[nH]1)c1ccc2c(C3CCCCC3)c3n(c2c1)CCOc1ccccc1-3` [Example 2-267, N-(1H-benzimidazol-2-yl)-12-cyclohexyl-6,7-dihydro-5-oxa-7a-azadibenzo[a,e]azulene-9-carboxamide] as the compound, how does the IC50 read?
**A.** 100 to 1000 nM

**Q.** For `O=C(O)c1ccc2nc(NC(=O)c3ccc4c(C5CCCCC5)c5n(c4c3)CCOc3ccccc3-5)[nH]c2c1` [Example 2-268, 2-[(12-cyclohexyl-6,7-dihydro-5-oxa-7a-azadibenzo[a,e]azulene-9-carbonyl)amino]-3H-benzimidazole-5-carboxylic acid], which IC50 is on record?
**A.** 100 to 1000 nM

**Q.** For `CC(C)(NC(=O)c1ccc2c(C3CCCCC3)c3n(c2c1)CCOc1ccccc1-3)c1nc2ccc(C#N)cc2[nH]1` [Example 2-269, N-[1-(6-cyano-1H-benzimidazol-2-yl)-1-methylethyl]-12-cyclohexyl-6,7-dihydro-5-oxa-7a-azadibenzo[a,e]azulene-9-carboxamide], which IC50 is on record?
**A.** < 100 nM

**Q.** How did the IC50 turn out when `COC(=O)[C@@H](NC(=O)c1ccc2c(C3CCCCC3)c3n(c2c1)CCOc1cc(OC)ccc1-3)c1ccc(O)cc1` [Example 2-270, methyl (S)-2-[(12-cyclohexyl-3-methoxy-6,7-dihydro-5-oxa-7a-azadibenzo[a,e]azulene-9-carbonyl)amino]-2-(4-hydroxyphenyl)acetate] was run?
**A.** < 100 nM

**Q.** For `COC(=O)[C@H](NC(=O)c1ccc2c(C3CCCCC3)c3n(c2c1)CCOc1cc(OC)ccc1-3)c1ccc(O)cc1` [Example 2-271, methyl (R)-2-[(12-cyclohexyl-3-methoxy-6,7-dihydro-5-oxa-7a-azadibenzo[a,e]azulene-9-carbonyl)amino]-2-(4-hydroxyphenyl)acetate], which IC50 is on record?
**A.** < 100 nM

**Q.** For `CCN(CCN1CCC(OC)CC1)c1cccc2c1OCCn1c-2c(C2CCCCC2)c2ccc(C(=O)O)cc21` [Example 2-272, 12-cyclohexyl-4-{N-ethyl-N-[2-(4-methoxypiperidin-1-yl)ethyl]amino}-6,7-dihydro-5-oxa-7a-azadibenzo[a,e]azulene-9-carboxylic acid dihydrochloride], which IC50 is on record?
**A.** < 100 nM

**Q.** With `O=C(O)c1ccc2c(C3CCCCC3)c3n(c2c1)CCOc1c(-c2ccccc2)cccc1-3` [Example 2-273, 12-cyclohexyl-4-phenyl-6,7-dihydro-5-oxa-7a-azadibenzo[a,e]azulene-9-carboxylic acid] as the compound, how does the IC50 read?
**A.** < 100 nM

**Q.** For `CCN(CCN1CCCC(COC)C1)c1cccc2c1OCCn1c-2c(C2CCCCC2)c2ccc(C(=O)O)cc21` (stereo not shown) [Example 2-274, 12-cyclohexyl-4-{N-ethyl-N-[2-(3-methoxymethylpiperidin-1-yl)ethyl]amino}-6,7-dihydro-5-oxa-7a-azadibenzo[a,e]azulene-9-carboxylic acid dihydrochloride], which IC50 is on record?
**A.** < 100 nM

**Q.** For `CCN(CCN1CCC(COC)CC1)c1cccc2c1OCCn1c-2c(C2CCCCC2)c2ccc(C(=O)O)cc21` [Example 2-275, 12-cyclohexyl-4-{N-ethyl-N-[2-(4-methoxymethylpiperidin-1-yl)ethyl]amino}-6,7-dihydro-5-oxa-7a-azadibenzo[a,e]azulene-9-carboxylic acid dihydrochloride], which IC50 is on record?
**A.** < 100 nM

**Q.** `CCCN(CCN1CCCCC1)c1cccc2c1OCCn1c-2c(C2CCCCC2)c2ccc(C(=O)NC(C)(C)C(=O)O)cc21` [Example 2-276, 2-[(12-cyclohexyl-4-{N-[2-(piperidin-1-yl)ethyl]-N-propylamino}-6,7-dihydro-5-oxa-7a-azadibenzo[a,e]azulene-9-carbonyl)amino]-2-methylpropionic acid] was tested. Which IC50 did it give?
**A.** < 100 nM

**Q.** For `O=C(O)c1ccc2c(C3CCCCC3)c3n(c2c1)CCOc1c-3cccc1N(CC(=O)N1CCCCC1)CC(=O)N1CCCCC1` [Example 2-277, 4-{bis[2-oxo-2-(piperidin-1-yl)ethyl]amino}-12-cyclohexyl-6,7-dihydro-5-oxa-7a-azadibenzo[a,e]azulene-9-carboxylic acid], which IC50 is on record?
**A.** < 100 nM

**Q.** Which IC50 does the source give for `O=C(O)c1ccc2c(C3CCCCC3)c3n(c2c1)CCOc1c-3cccc1N(CCN1CCCCC1)CCN1CCCCC1` [Example 2-278, 4-{bis[2-(piperidin-1-yl)ethyl]amino}-12-cyclohexyl-6,7-dihydro-5-oxa-7a-azadibenzo[a,e]azulene-9-carboxylic acid dihydrochloride] here?
**A.** < 100 nM

**Q.** Which IC50 does the source give for `COC(=O)[C@H](Cc1ccc(F)cc1)NC(=O)c1ccc2c(C3CCCCC3)c3n(c2c1)CCOc1cc(OC)ccc1-3` [Example 2-279, methyl (S)-2-[(12-cyclohexyl-3-methoxy-6,7-dihydro-5-oxa-7a-azadibenzo[a,e]azulene-9-carbonyl)amino]-3-(4-fluorophenyl)propionate] here?
**A.** < 100 nM

**Q.** For `COC(=O)[C@H](Cc1c[nH]cn1)NC(=O)c1ccc2c(C3CCCCC3)c3n(c2c1)CCOc1cc(OC)ccc1-3` [Example 2-280, methyl (S)-2-[(12-cyclohexyl-3-methoxy-6,7-dihydro-5-oxa-7a-azadibenzo[a,e]azulene-9-carbonyl)amino]-3-(1H-imidazol-4-yl)propionate], which IC50 is on record?
**A.** < 100 nM

**Q.** Which IC50 does the source give for `COC(=O)[C@@H]1Cc2ccc(O)cc2CN1C(=O)c1ccc2c(C3CCCCC3)c3n(c2c1)CCOc1cc(OC)ccc1-3` [Example 2-281, methyl (S)-2-(12-cyclohexyl-3-methoxy-6,7-dihydro-5-oxa-7a-azadibenzo[a,e]azulene-9-carbonyl)-7-hydroxy-1,2,3,4-tetrahydroisoquinoline-3-carboxylate] here?
**A.** 100 to 1000 nM

**Q.** `COC(=O)c1cc2[nH]c(C(C)(C)NC(=O)c3ccc4c(C5CCCCC5)c5n(c4c3)CCOc3ccccc3-5)nc2cc1C` [Example 2-282, methyl 2-{1-[(12-cyclohexyl-6,7-dihydro-5-oxa-7a-azadibenzo[a,e]azulene-9-carbonyl)amino]-1-methylethyl}-6-methyl-3H-benzimidazole-5-carboxylate] was tested. Which IC50 did it give?
**A.** < 100 nM

**Q.** `Cc1cc2nc(C(C)(C)NC(=O)c3ccc4c(C5CCCCC5)c5n(c4c3)CCOc3ccccc3-5)[nH]c2cc1C(=O)O` [Example 2-283] was tested. Which IC50 did it give?
**A.** < 100 nM

**Q.** With `COC(=O)Cn1c(C(C)(C)NC(=O)c2ccc3c(C4CCCCC4)c4n(c3c2)CCOc2ccccc2-4)nc2ccccc21` [Example 2-284, methyl (2-{1-[(12-cyclohexyl-6,7-dihydro-5-oxa-7a-azadibenzo[a,e]azulene-9-carbonyl)amino]-1-methylethyl}benzimidazol-1-yl)acetate] as the compound, how does the IC50 read?
**A.** < 100 nM

From US20070049593A1 (priority 2004, published 2007)
